From BindingDB's records for doi:10.7270/Q2TX3CTT (Broad Institute, 2010)
Counter-ions that a name gives are not always drawn.

Target: Glycogen synthase kinase-3 beta (Homo sapiens, UniProt P49841)
Assay: GSK3beta kinase inhibitor potency, dose response, biochemical, luminescence, cell-free homogeneous, retest (AID 434954)

Glycogen synthase kinase-3 beta, sequence (P49841 whole entry): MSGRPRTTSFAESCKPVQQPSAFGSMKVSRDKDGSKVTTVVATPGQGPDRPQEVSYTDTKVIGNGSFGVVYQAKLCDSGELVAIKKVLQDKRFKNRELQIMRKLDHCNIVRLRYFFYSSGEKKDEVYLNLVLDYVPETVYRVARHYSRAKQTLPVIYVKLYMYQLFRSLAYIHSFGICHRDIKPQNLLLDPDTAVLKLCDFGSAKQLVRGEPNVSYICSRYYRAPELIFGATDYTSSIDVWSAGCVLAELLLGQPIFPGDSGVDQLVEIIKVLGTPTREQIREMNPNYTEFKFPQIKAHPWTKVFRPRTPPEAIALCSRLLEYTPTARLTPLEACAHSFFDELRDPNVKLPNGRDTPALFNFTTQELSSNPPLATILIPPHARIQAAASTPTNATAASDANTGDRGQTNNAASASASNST

| SMILES | EC50 |
| --- | --- |
| O=[N+]([O-])c1cc(/C=N/n2cnnc2)ccc1N1CCCC1 [1-[3-nitro-4-(1-pyrrolidinyl)phenyl]-N-(1,2,4-triazol-4-yl)methanimine] | > 300 µM |
| Cc1cc([N+](=O)[O-])c(C)cc1-c1ccc(/C=N/n2cnnc2)o1 [1-[5-(2,5-dimethyl-4-nitrophenyl)furan-2-yl]-N-(1,2,4-triazol-4-yl)methanimine] | > 300 µM |
| CN1CCN(/N=C/c2ccc(-c3ccc([N+](=O)[O-])cc3Cl)o2)CC1 [1-[5-(2-chloro-4-nitrophenyl)-2-furanyl]-N-(4-methyl-1-piperazinyl)methanimine] | > 300 µM |
| NC(=O)C1CCN(C(=O)c2ccc(Oc3cc(Cl)cc(Cl)c3)o2)CC1 [1-[5-[3,5-bis(chloranyl)phenoxy]furan-2-yl]carbonylpiperidine-4-carboxamide] | > 300 µM |
| CSc1nc(C)cc(-n2ccc(=O)[nH]c2=O)n1 [1-[6-methyl-2-(methylthio)-4-pyrimidinyl]pyrimidine-2,4-dione] | 25.8 µM |
| CCOC(=O)C1(Cc2cccc(F)c2)CCN(Cc2cn(CC)nc2C)CC1 [1-[(1-ethyl-3-methyl-4-pyrazolyl)methyl]-4-[(3-fluorophenyl)methyl]-4-piperidinecarboxylic acid ethyl ester] | > 300 µM |
| NC(=O)c1ncn([C@@H]2O[C@H](CO)[C@@H](O)[C@H]2O)c1O [1-[(2R,3R,4S,5R)-5-(hydroxymethyl)-3,4-bis(oxidanyl)oxolan-2-yl]-5-oxidanyl-imidazole-4-carboxamide] | > 300 µM |
| CSc1nc(NCC(C)O)c2c3c(sc2n1)CN(C)CC3 (stereo not given) [1-[(7-methyl-2-methylsulfanyl-6,8-dihydro-5H-pyrido[4,5]thieno[1,2-c]pyrimidin-4-yl)amino]propan-2-ol] | 18.3 µM |
| CCCOC1CCCN(Cc2cn(C)nc2-c2ccccc2F)C1 (stereo not given) [1-[[3-(2-fluorophenyl)-1-methylpyrazol-4-yl]methyl]-3-propoxypiperidine] | > 300 µM |
| COc1ccc(-c2nn(-c3ccccc3)cc2C=NNC(=S)NC(C)C)cc1OC [1-[[3-(3,4-dimethoxyphenyl)-1-phenyl-4-pyrazolyl]methylideneamino]-3-propan-2-ylthiourea] | > 300 µM |
| CC(C)Nc1nc(N)c(C(=O)C23CC4CC(CC(C4)C2)C3)s1 [1-adamantyl-[4-azanyl-2-(propan-2-ylamino)-1,3-thiazol-5-yl]methanone] | 23.5 µM |
| COC(=O)c1cn(NC(=O)c2cccnc2)c(=O)c2ccccc12 [1-keto-2-nicotinamido-isoquinoline-4-carboxylic acid methyl ester] | > 300 µM |
| Cc1cccc(-n2c(=O)c3c4c(sc3n3c(=S)[nH]nc23)CCC4)c1 [1-mercapto-4-(3-methylphenyl)-7,8-dihydro-6H-cyclopenta[4,5]thieno[3,2-e][1,2,4]triazolo[4,3-a]pyrimidin-5(4H)-one] | 48.9 µM |
| COc1ccc(-n2c(=O)c3c4c(sc3n3c(S)nnc23)CCCC4)cc1 [1-mercapto-4-(4-methoxyphenyl)-6,7,8,9-tetrahydro[1]benzothieno[3,2-e][1,2,4]triazolo[4,3-a]pyrimidin-5(4H)-one] | > 300 µM |
| Cc1nn(CC(=O)N2CCN(c3ccccn3)CC2)c(=O)c2cc3sccc3n12 [1-methyl-3-[2-oxidanylidene-2-(4-pyridin-2-ylpiperazin-1-yl)ethyl]thieno[3,4]pyrrolo[3,5-c][1,2,4]triazin-4-one] | > 300 µM |
| O=C(Nc1ccccc1)Nc1ccccn1 [1-phenyl-3-pyridin-2-ylurea] | > 300 µM |
| CCCn1c(SCC(=O)N2CCCCC2)nnc1-c1ccccn1 [1-piperidin-1-yl-2-[(4-propyl-5-pyridin-2-yl-1,2,4-triazol-3-yl)sulfanyl]ethanone] | > 300 µM |
| O=C(Nc1ccncc1)Nc1ccccn1 [1-pyridin-2-yl-3-pyridin-4-yl-urea] | 4.96 µM |
| O=[N+]([O-])c1ccc(-n2nnnc2-c2ccccc2)c([N+](=O)[O-])c1 [1-{2,4-bisnitrophenyl}-5-phenyl-1H-tetraazole] | > 300 µM |
| CC(=O)c1ccc(Cc2cnc(N)s2)cc1 [1-{4-[(2-amino-1,3-thiazol-5-yl)methyl]phenyl}ethanone] | > 300 µM |
| Cc1ccc2nc3c(cc2c1)c(NC(=O)C(C)(C)C)nn3CC(C)C [2,2-dimethyl-N-[6-methyl-1-(2-methylpropyl)pyrazolo[3,4-b]quinolin-3-yl]propanamide] | > 300 µM |
| CCCNCC1COc2ccccc2O1 (stereo not given) [2,3-dihydro-1,4-benzodioxin-3-ylmethyl(propyl)amine;hydrochloride] | > 300 µM |
| CCN1CCN(c2ccc(S(=O)(=O)N3CCOCC3)cc2NC(=O)c2ccc(Cl)cc2Cl)CC1 [2,4-bis(chloranyl)-N-[2-(4-ethylpiperazin-1-yl)-5-morpholin-4-ylsulfonyl-phenyl]benzamide] | > 300 µM |
| CC(C)=CCc1c(O)cc(O)c2c(=O)c3c(CC=C(C)C)c(O)ccc3oc12 [2,6,8-trihydroxy-1,5-bis(3-methylbut-2-enyl)xanthen-9-one] | > 300 µM |
| N=C(Cc1nc2ccccc2s1)NO [2-(1,3-benzothiazol-2-yl)-N'-oxidanyl-ethanimidamide] | > 300 µM |

| SMILES | EC50 |
| --- | --- |
| O=C(O)c1ccccc1C(=O)Nc1nccs1 [2-(1,3-thiazol-2-ylcarbamoyl)benzoic acid] | > 300 µM |
| CCn1c(=O)cc(OCC(=O)N(C)c2ccccc2F)c2ccccc21 [2-(1-ethyl-2-oxidanylidene-quinolin-4-yl)oxy-N-(2-fluorophenyl)-N-methyl-ethanamide] | > 300 µM |
| COc1ccccc1-c1cc2ccccc2[nH]1 [2-(1H-indol-2-yl)phenyl methyl ether] | > 300 µM |
| COc1ccc(Cl)cc1NC(=O)CS(=O)(=O)c1cccc2nsnc12 [2-(2,1,3-benzothiadiazol-4-ylsulfonyl)-N-(5-chloranyl-2-methoxy-phenyl)ethanamide] | > 300 µM |
| CCc1ccc(NC(=O)C(NS(=O)(=O)c2cccc3nsnc23)c2ccccc2)cc1 (stereo not given) [2-(2,1,3-benzothiadiazol-4-ylsulfonylamino)-N-(4-ethylphenyl)-2-phenyl-ethanamide] | > 300 µM |
| CC(=O)N1CCc2c(sc(NC(=O)C3COc4ccccc4O3)c2C(N)=O)C1 (stereo not given) [2-(2,3-dihydro-1,4-benzodioxin-3-ylcarbonylamino)-6-ethanoyl-5,7-dihydro-4H-thieno[2,3-c]pyridine-3-carboxamide] | 8.32 µM |
| COc1ccc(CCNC(=O)CN2CCOc3ccccc32)cc1OC [2-(2,3-dihydro-1,4-benzoxazin-4-yl)-N-[2-(3,4-dimethoxyphenyl)ethyl]acetamide] | > 300 µM |
| O=C(CN1C(=O)CCC1=O)Nc1cccc(NC(=O)CN2C(=O)CCC2=O)c1 [2-(2,5-dioxo-1-pyrrolidinyl)-N-[3-[[2-(2,5-dioxo-1-pyrrolidinyl)-1-oxoethyl]amino]phenyl]acetamide] | > 300 µM |
| O=C(CN1C(=O)CCC1=O)Nc1ccc(Cc2ccc(NC(=O)CN3C(=O)CCC3=O)cc2)cc1 [2-(2,5-dioxo-1-pyrrolidinyl)-N-[4-[[4-[[2-(2,5-dioxo-1-pyrrolidinyl)-1-oxoethyl]amino]phenyl]methyl]phenyl]acetamide] | > 300 µM |
| C=CCNc1nc(N)c([N+](=O)[O-])c(NCCO)n1 [2-(2-Allylamino-6-amino-5-nitro-pyrimidin-4-ylamino)-ethanol] | 46.5 µM |
| NC(=O)c1c(NC(=O)CN2CCCC2)sc2c1CCCC2 [2-(2-Pyrrolidin-1-yl-acetylamino)-4,5,6,7-tetrahydro-benzo[b]thiophene-3-carboxylic acid amide] | > 300 µM |
| CCN(CC)S(=O)(=O)c1cccc(NC(=O)COc2ccc(Cl)cc2Br)c1 [2-(2-bromanyl-4-chloranyl-phenoxy)-N-[3-(diethylsulfamoyl)phenyl]ethanamide] | > 300 µM |
| O=C(COc1ccccc1Cl)Nc1ccc2c(c1)OCCO2 [2-(2-chloranylphenoxy)-N-(2,3-dihydro-1,4-benzodioxin-6-yl)ethanamide] | > 300 µM |
| O=c1cc(-c2ccccc2Cl)oc2cc(O)cc(O)c12 [2-(2-chlorophenyl)-5,7-dihydroxychromen-4-one] | 1.67 µM |
| O=c1cccc2oc(-c3ccccc3Cl)cc(O)c1-2 [2-(2-chlorophenyl)-5-hydroxy-1-benzopyran-4-one] | > 300 µM |
| O=c1cc(-c2ccccc2Cl)oc2ccc([N+](=O)[O-])c(O)c12 [2-(2-chlorophenyl)-5-hydroxy-6-nitrochromen-4-one] | > 300 µM |
| CCC(CC)NC(=O)COC(=O)c1ccc2c(c1)C(=O)N(Cc1ccco1)C2=O [2-(2-furanylmethyl)-1,3-dioxo-5-isoindolecarboxylic acid [2-oxo-2-(pentan-3-ylamino)ethyl] ester] | > 300 µM |
| COc1ccc(C=c2sc(=CC(=O)C(C)(C)C)[nH]c2=O)cc1O [2-(3,3-dimethyl-2-oxidanylidene-butylidene)-5-[(4-methoxy-3-oxidanyl-phenyl)methylidene]-1,3-thiazolidin-4-one] | 7.2 µM |
| O=c1c(O)c(-c2ccc(O)c(O)c2)oc2cc(O)cc(O)c12 [2-(3,4-dihydroxyphenyl)-3,5,7-trihydroxy-chromone;hydrate] | 10.1 µM |
| O=c1cc(-c2ccc(O)c(O)c2)oc2cc(O)cc(O)c12 [2-(3,4-dihydroxyphenyl)-5,7-dihydroxy-4H-chromen-4-one] | 3.81 µM |
| CC(C)=CCc1c(O)ccc2c1OC(c1ccc(O)c(O)c1)CC2=O (stereo not given) [2-(3,4-dihydroxyphenyl)-7-hydroxy-8-(3-methylbut-2-enyl)-2,3-dihydrochromen-4-one] | 4.58 µM |
| COc1ccc(CC(=O)Nc2nc(-c3ccccc3)c(C(C)=O)s2)cc1OC [2-(3,4-dimethoxyphenyl)-N-(5-ethanoyl-4-phenyl-1,3-thiazol-2-yl)ethanamide] | 7.48 µM |
| Cn1c(SCC(=O)Nc2ccccc2)nc2ccccc2c1=O [2-(3-Methyl-4-oxo-3,4-dihydro-quinazolin-2-ylsulfanyl)-N-phenyl-acetamide] | > 300 µM |
| COc1ccc2c(c1)-c1c(ssc1=S)C(C)(C)N2C(=O)CSC1=NCCS1 [2-(4,5-dihydrothiazol-2-ylthio)-1-(8-methoxy-4,4-dimethyl-1-sulfanylidene-5-dithiolo[3,4-c]quinolinyl)ethanone] | > 300 µM |
| Cc1c(Br)c([N+](=O)[O-])nn1CC(=O)Nc1c(C)n(C)n(-c2ccccc2)c1=O [2-(4-Bromo-5-methyl-3-nitro-pyrazol-1-yl)-N-(1,5-dimethyl-3-oxo-2-phenyl-2,3-dihydro-1H-pyrazol-4-yl)-acetamide] | > 300 µM |
